# US20150253591A1, “DYE COMPOSITION FOR ELECTROWETTING DISPLAY AND ELECTROWETTING DISPLAY DEVICE” (FUJIFILM CORPORATION, priority 2012, published 2015)
# Experiments:
# Assay type in all cases: physicochemical
# [1] = Relative dielectric constant of nonpolar solvent; details: 1 kHz, 20° C. and 40% RH
# Experimental: The relative dielectric constant is determined by injecting a nonpolar solvent in a glass cell with a 10-μm cell gap provided with an ITO transparent electrode, and measuring the electrical capacity of the obtained cell using a 2353LCR METER manufactured by NF Corporation (measurement frequency: 1 kHz) at 20° C. and 40% RH.
# [2] = High temperature suitability of dye composition; details: 180° C. for 2 hours without a cap; for High temperature suitability, Dihexyl ether (present invention): 20% by mass dye in dihexyl ether; for High temperature suitability, Dipentyl ether (present invention): 20% by mass dye in dipentyl ether; for High temperature suitability, Decane (comparative): 20% by mass dye in n-decane
# Experimental: Each dye composition was placed in a vial, and the vial was left standing in an oil bath without a cap at 180° C. for 2 hours. The mass of the vial after standing was weighed and evaluated according to the following evaluation criteria.
# A: Decrease in the mass of the vial was less than 10%.
# B: Decrease in the mass of the vial was 10% or more.
# [3] = Solubility of dye in nonpolar solvent; details: for Solubility Dihexyl ether: in dihexyl ether at 25° C. and 0.1 MPa; for Solubility n-Decane: in n-decane at 25° C. and 0.1 MPa
# Experimental: Each of the prepared 20% by mass solutions (dye compositions) was heated at 50° C. and then left standing at room temperature for 12 hours to obtain a supernatant liquid. The amount of the unsolved dye was weighed and the solubility of each pigment in dihexyl ether or n-decane at 25° C. and 0.1 MPa was calculated.
# [4] = Low temperature suitability of dye composition; design: key: A dye composition was maintained in a liquid state.; B: A dye composition was not maintained in a liquid state, and changed to a solid state; details: -41° C. for 12 hours; for Low temperature suitability, Dihexyl ether (present invention): 20% by mass dye in dihexyl ether; for Low temperature suitability, Dipentyl ether (present invention): 20% by mass dye in dipentyl ether; for Low temperature suitability, Decane (comparative): 20% by mass dye in n-decane
# Experimental: Each dye composition was placed in a vial, and the vial was left standing in an ice bath (calcium chloride+ice) at −41° C. for 12 hours. The condition of each dye composition after standing was observed and evaluated according to the following evaluation criteria.
# A: A dye composition was maintained in a liquid state.
# B: A dye composition was not maintained in a liquid state, and changed to a solid state.
smiles,measurement,setting,value
CCCCCCCOCCCCCCC [diheptyl ether],relative dielectric constant ∈r,[1],2.1
CCCCCOCCCCC [dipentyl ether],relative dielectric constant ∈r,[1],2.1
CCCCCCCCCCCCOCCCCCCCCCCCC [didodecyl ether],relative dielectric constant ∈r,[1],2.1
C1CCC(OC2CCCCC2)CC1 [dicyclohexyl ether],relative dielectric constant ∈r,[1],2.1
CCCCCCOCCCCCC [dihexyl ether],relative dielectric constant ∈r,[1],2.1
CCCCC(CC)CN(CC(CC)CCCC)c1ccc(/N=C2/C(C)=Nn3nc(C(C)(C)C)nc32)cc1 (stereo not drawn) [Dye P-2],"High temperature suitability, Dihexyl ether (present invention)",[2],A (Decrease in the mass of the vial was less than 10%.)
same,"High temperature suitability, Dipentyl ether (present invention)",[2],A (Decrease in the mass of the vial was less than 10%.)
same,"High temperature suitability, Decane (comparative)",[2],B (Decrease in the mass of the vial was 10% or more.)
same,Solubility Dihexyl ether,[3],20 or more % by mass
same,Solubility n-Decane,[3],20 or more % by mass
same,"Low temperature suitability, Dihexyl ether (present invention)",[4],A
same,"Low temperature suitability, Dipentyl ether (present invention)",[4],A
same,"Low temperature suitability, Decane (comparative)",[4],B
CCCCC(CC)CN(CC(CC)CCCC)c1ccc(/C=C2\C(=O)ON=C2C(C)(C)C)c(C)c1 (stereo not drawn) [Dye P-1],"High temperature suitability, Dihexyl ether (present invention)",[2],A (Decrease in the mass of the vial was less than 10%.)
same,"High temperature suitability, Dipentyl ether (present invention)",[2],A (Decrease in the mass of the vial was less than 10%.)
same,"High temperature suitability, Decane (comparative)",[2],B (Decrease in the mass of the vial was 10% or more.)
same,Solubility Dihexyl ether,[3],20 or more % by mass
same,Solubility n-Decane,[3],20 or more % by mass
same,"Low temperature suitability, Dihexyl ether (present invention)",[4],A
same,"Low temperature suitability, Dipentyl ether (present invention)",[4],A
same,"Low temperature suitability, Decane (comparative)",[4],B
